Results on 24 molecules are retold here after paper PMC8062543 (Scientific Reports, 2021).

Data set [1] deals with T1, MtmGntK (Methylotuvimicrobium alcaliphilum, UniProt G4T089).
T1 construct: gene gntK; C-terminal His6, E. coli Rosetta (DE3), pET30; ~20 kDa, monomer
T1 sequence (G4T089 1-181): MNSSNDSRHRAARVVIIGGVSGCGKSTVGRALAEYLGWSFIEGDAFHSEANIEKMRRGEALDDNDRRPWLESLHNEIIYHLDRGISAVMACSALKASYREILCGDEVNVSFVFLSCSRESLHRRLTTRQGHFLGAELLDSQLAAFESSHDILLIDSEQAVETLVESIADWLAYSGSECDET
The data set is described as follows: biochemical. Set-up: recombinant gluconate kinase activity, coupled to 6-phosphogluconate dehydrogenase, NADPH at 340 nm, effect of added metabolite. The settings on record: read-out: % of control remaining; for remaining activity at 5000 µM: 5 mM; for remaining activity at 1000 µM: 1 mM. The method, then: GntK activity assay The activity of GntK was measured in the reaction mixture containing 50 mM Tris–HCl buffer, pH 9.0; 8 mM MgCl2; 6 mM gluconate; 5 mM ATP; 0.3 mM NADP^+; 5U 6-phosphogluconate dehydrogenase (6PGDH, Sigma-Aldrich) as a coupling enzyme and ~ 15 µg GntK. The activity of Mb. luteus GntK was assayed in 50 mM Tris–HCl buffer (pH 8.0). The reaction was started with 6 mM sodium gluconate. To study the effect of pH, the following buffers were used (50 mM): Carbonate (pH 9.0–10.5), TAPS-NaOH (pH 8.0–9.0), Tris–HCl (pH 7.5–9.0), K-phosphate (pH 7.0–8.0), MES-NaOH (pH 5.0–6.0) or citrate (pH 4.0–5.0). […] The NAD^+/NADP^+ reduction rates were measured at 340 nm with a UV-1700 spectrophotometer (Shimadzu). The apparent Km and Vmax values were calculated using Sigma Plot (version 10). The exponentially grown cells were used to measure enzymatic activity in cell-free extracts.

Data set [2] has as its target T2, MtmGDH (Methylotuvimicrobium alcaliphilum, UniProt G4T0V2).
T2 construct: gene gdhI; full ORF, N-terminal His6 kept, E. coli Rosetta (DE3), pET28
T2 sequence (G4T0V2 1-271): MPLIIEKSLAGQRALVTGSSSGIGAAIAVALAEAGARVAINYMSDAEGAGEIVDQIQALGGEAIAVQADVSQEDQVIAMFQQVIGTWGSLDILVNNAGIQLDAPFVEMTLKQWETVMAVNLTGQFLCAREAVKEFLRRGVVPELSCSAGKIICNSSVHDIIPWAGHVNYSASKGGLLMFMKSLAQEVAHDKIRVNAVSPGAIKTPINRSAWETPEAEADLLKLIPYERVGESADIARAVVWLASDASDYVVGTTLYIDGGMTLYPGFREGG
Description: biochemical. The following applies: read-out: % of control remaining; for remaining activity at 1000 µM: 1 mM; for remaining activity at 5000 µM: 5 mM. The method, then:
GDH activity assay The activity of GDH from Mtm. alcaliphilum was measured by recording the rate of NAD^+ or NADP^+ reduction at 30 °C. 1 mL of the reaction mixture routinely contained 50 mM Glycine–NaOH buffer, pH 10.0; 0.3 mM NAD(P)^+ and ~ 1 μg of GDH. The reaction was started with 200 mM D-glucose. The activity of Mb. luteus GDH was measured using 20 mM D-glucose in 50 mM Tris–HCl, pH 8.5. […] The effect of pH on the activity was studied using the following buffers (50 mM): Glycine–NaOH (pH 9.0–10.5), CHES-NaOH (pH 8.5–10.0), Tris–HCl (pH 7.5–9.0), and MES-NaOH (pH 5.0–7.0). KCl, NH4Cl or NaCl at a final concentration of 50 mM were added to test the effect of monovalent ions on the enzyme activity. The effects of divalent metals were assessed using MgCl2, MnCl2, [compound left out], CuCl2, CdCl2, NiCl2 or ZnCl2 at a final concentration of 1 mM. Glucose-6-phosphate, glucose-1-phosphate, fructose-6-phosphate, fructose-1,6-bisphosphate (5 mM), pyruvate, PEP, oxaloacetate, lactate, malate, isocitrate, citrate, succinate, serine, α-ketoglutarate, ATP, ADP, AMP and PPi (1 mM) were examined as potential inhibitors or activators. To determine the optimal temperature for enzyme activity, the reaction was carried out in a temperature range of 10–70 °C.

The target of data set [3] is T3, MbGDH (Methylobacter luteus, UniProt Z9JUG8QEO0).
T3 construct: gene gdh; full ORF, N-terminal His6 (pET28Ub-shHis)
The data set is described as follows: NAD(P)H formation at […] nm. In kind it is biochemical. The settings on record: inhibitor; 10 mM in results (5 mM in methods); pH 8.5 Tris-HCl, 20 mM D-glucose.

In data set [4] the target is T4, MtmGDH (Methylotuvimicrobium alcaliphilum, UniProt G4T0V2).
T4 construct: gene gdhI; full ORF, N-terminal His6 kept, E. coli Rosetta (DE3), pET28
The data set is described as follows: NAD(P)H formation at […] nm. The class given is biochemical. The settings on record: activator; pH 10.0 glycine-NaOH, 30 °C, 200 mM D-glucose.

Data set [5] concerns T5, NC(=O)c1ccc[n+]([C@@H]2O[C@H](COP(=O)(O)OP(=O)(O)OC[C@H]3O[C@@H](n4cnc5c(N)ncnc54)[C@H](O)[C@@H]3O)[C@@H](O)[C@H]2O)c1.
T5 construct: full ORF, N-terminal His6 (pET28Ub-shHis)
The data set is described as follows: purified protein. The class given is biochemical, Methylobacter luteus. The settings on record: pH 8.5 Tris-HCl, D-glucose.

Data set [6] deals with T6, NC(=O)c1ccc[n+]([C@@H]2O[C@H](COP(=O)(O)OP(=O)(O)OC[C@H]3O[C@@H](n4cnc5c(N)ncnc54)[C@H](OP(=O)(O)O)[C@@H]3O)[C@@H](O)[C@H]2O)c1.
T6 construct: full ORF, N-terminal His6 (pET28Ub-shHis)
The data set is described as follows: purified protein. The class given is biochemical, Methylobacter luteus. The settings on record: pH 8.5 Tris-HCl, D-glucose.

Data set [7] concerns the target glucose dehydrogenase (GDH) from Methylobacter luteus IMV-B-3098 (Methylobacter luteus IMV-B-3098). The data set is described as follows: SEC; gel filtration on XK 16/100 Superdex 200, 0.02 M Tris-HCl pH 7.0 with 0.5 M NaCl, calibrated with protein markers; GDHs with the cut-off His-tag.
Data set [8] addresses glucose dehydrogenase (GDH) from Methylotuvimicrobium alcaliphilum 20Z (Methylotuvimicrobium alcaliphilum 20Z). The data set is described as above.
Substrate in data set [9]: O=C(O)[C@H](O)[C@@H](O)[C@H](O)[C@H](O)CO
Description: purified protein. The class given is biochemical, Methylotuvimicrobium alcaliphilum. The settings on record: pH 9.0 Tris-HCl, 8 mM MgCl2, 5 mM ATP.

Substrate in data set [10]: Nc1ncnc2c1ncn2[C@@H]1O[C@H](COP(=O)(O)OP(=O)(O)OP(=O)(O)O)[C@@H](O)[C@H]1O
Description: purified protein. The class given is biochemical, Methylotuvimicrobium alcaliphilum. The settings on record: pH 9.0 Tris-HCl, 8 mM MgCl2, 6 mM gluconate, Hill n = 1.6.

Substrate in data set [11]: NC(=O)c1ccc[n+]([C@@H]2O[C@H](COP(=O)(O)OP(=O)(O)OC[C@H]3O[C@@H](n4cnc5c(N)ncnc54)[C@H](O)[C@@H]3O)[C@@H](O)[C@H]2O)c1
Description: purified protein. The class given is biochemical, Methylotuvimicrobium alcaliphilum. The settings on record: pH 10.0 glycine-NaOH, 30 °C, 200 mM D-glucose.

Substrate in data set [12]: NC(=O)c1ccc[n+]([C@@H]2O[C@H](COP(=O)(O)OP(=O)(O)OC[C@H]3O[C@@H](n4cnc5c(N)ncnc54)[C@H](OP(=O)(O)O)[C@@H]3O)[C@@H](O)[C@H]2O)c1
The data set is described as follows: purified protein. In kind it is biochemical, Methylotuvimicrobium alcaliphilum. The settings on record: pH 10.0 glycine-NaOH, 30 °C, 200 mM D-glucose.

T3 sequence (Z9JUG8QEO0 1-271 limits assumed): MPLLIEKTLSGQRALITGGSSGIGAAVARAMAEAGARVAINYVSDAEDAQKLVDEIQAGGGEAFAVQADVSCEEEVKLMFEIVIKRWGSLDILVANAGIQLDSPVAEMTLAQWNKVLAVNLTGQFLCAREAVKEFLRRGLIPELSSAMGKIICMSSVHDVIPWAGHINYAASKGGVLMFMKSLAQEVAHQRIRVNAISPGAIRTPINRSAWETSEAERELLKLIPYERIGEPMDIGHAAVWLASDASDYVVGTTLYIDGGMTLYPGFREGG

As for `Nc1ncnc2c1ncn2[C@@H]1O[C@H](COP(=O)(O)OP(=O)(O)O)[C@@H](O)[C@H]1O` [ADP], in data set [1], the remaining activity at 5000 µM stood at 71 ± 1%. Also, the remaining activity at 1000 µM in data set [2] was found to be 87 ± 1%. As to `Nc1ncnc2c1ncn2[C@@H]1O[C@H](COP(=O)(O)O)[C@@H](O)[C@H]1O` [AMP], the remaining activity at 4000 µM in data set [1] (4 mM) turned out to be 98 ± 1%. For the same molecule, the remaining activity at 1000 µM in [2] came out at 109 ± 1%. Turning to `Nc1ncnc2c1ncn2[C@@H]1O[C@H](COP(=O)(O)OP(=O)(O)OP(=O)(O)O)[C@@H](O)[C@H]1O` [ATP], the remaining activity at 1000 µM in data set [2] turned out to be 93 ± 2%.

With `O=C(O)CC(O)(CC(=O)O)C(=O)O` [Citrate], the remaining activity at 1000 µM in data set [2] came to 119 ± 1%.

Consider `O=P(O)(O)OC[C@H]1O[C@@](O)(COP(=O)(O)O)[C@@H](O)[C@@H]1O` [Fructose-1,6-bisphosphate], for which, in data set [2], the remaining activity at 5000 µM is 103 ± 1%.

For `O=C(CO)[C@@H](O)[C@H](O)[C@H](O)COP(=O)(O)O` [Fructose-6-phosphate], in [2], the remaining activity at 5000 µM amounted to 101 ± 1%.

Take `O=P(O)(O)O[C@H]1O[C@H](CO)[C@@H](O)[C@H](O)[C@H]1O` [Glucose 1-Phosphate]: in [1], the remaining activity at 5000 µM was 96 ± 2%. With `O=P(O)(O)O[C@H]1O[C@H](CO)[C@@H](O)[C@H](O)[C@H]1O` [Glucose-1-phosphate], the remaining activity at 5000 µM in [2] was 103 ± 1%. Consider `CC(O)C(=O)O` (stereo not drawn) [Lactate], for which the remaining activity at 1000 µM in data set [2] was 116 ± 1%. On the same count and under the same terms, the value for `O=C(O)CC(O)C(=O)O` (stereo not drawn) [Malate] was 95 ± 5%. Regarding `O=C(O)CC(=O)C(=O)O` [Oxaloacetate], the results for the remaining activity at 1000 µM in data set [1] and in [2] were 101 ± 1% and 107 ± 3%, respectively. As for `C=C(OP(=O)(O)O)C(=O)O` [Phosphoenolpyruvate], the remaining activity at 5000 µM in data set [1] was 84 ± 1%. Moreover, the remaining activity at 1000 µM in data set [2] was 94%. Take `CC(=O)C(=O)O` [Pyruvate]: the remaining activity at 3000 µM in data set [1] (3 mM) worked out at 95 ± 2%. For the same molecule, the remaining activity at 1000 µM in [2] came out at 96 ± 1%. For the molecule `N[C@@H](CO)C(=O)O` [Serine], the remaining activity at 1000 µM in data set [2] stood at 108 ± 3%.

Turning to `O=C(O)CCC(=O)O` [Succinate], the remaining activity at 1000 µM in data set [2] was 99 ± 1%. `O=P(O)(O)OC[C@H]1OC(O)[C@H](O)[C@@H](O)[C@@H]1O` (stereo partly drawn) [glucose-6-phosphate]: the remaining activity at 5000 µM in [1] was 96 ± 1%. Besides, the “% decrease of activity at 10 mM” value in data set [3] was 40%.

On to `O=C(O)C[C@H](C(=O)O)[C@@H](O)C(=O)O` [isocitrate], for which, in [4], the “% increase of activity at 1 mM” value is recorded as 40%. Also, in data set [2], the remaining activity at 1000 µM turned out to be 140 ± 4%.

Consider `O=C(O)CCC(=O)C(=O)O` [α-Ketoglutarate], for which the remaining activity at 1000 µM was determined as 90 ± 2% in data set [1] and 104 ± 1% in data set [2]. For the molecule MbGDH (Methylobacter luteus), in data set [5], the Km (as a rule, the substrate concentration at which the rate is half of its maximum) amounted to 120 ± 20 µM; the turnover number (kcat) – broadly, the number of substrate molecules converted per active site and unit of time at saturation – amounted to 0.05 s⁻¹. Also, in data set [6], the Km is 1600 ± 300 µM and the catalytic constant (kcat) was 0.067 s⁻¹. Take “glucose dehydrogenase (GDH) from Methylobacter luteus IMV-B-3098 (enzyme)”: the stoichiometry N (as a rule, a count of units in the complex or per binding partner) in data set [7] is 4.

In data set [8], “glucose dehydrogenase (GDH) from Methylotuvimicrobium alcaliphilum 20Z (enzyme)” had a stoichiometry N of 4.

B1: MtmGntK (Methylotuvimicrobium alcaliphilum 20Z) (protein)
chain: T1 sequence (G4T089 1-181)
notes: C-terminal His6, E. coli Rosetta (DE3), pET30; ~20 kDa, monomer
For the molecule B1, in data set [9], the K0.5 stood at 0.6 ± 0.04 mM and the turnover number (kcat) worked out at 0.00433 s⁻¹. In [10], the K0.5 turned out to be 1.3 ± 0.2 mM and the kcat is 0.00867 s⁻¹.

B2: MtmGDH without His6-tag (Methylotuvimicrobium alcaliphilum 20Z) (protein)
chain: T2 sequence (G4T0V2 1-271)
notes: full ORF, His6 tag cut off with Usp2-His6 protease (not repurified afterwards), E. coli Rosetta (DE3), pET28Ub-shHis; homotetramer 112 kDa
As to B2, the Km was determined as 390 ± 60 µM in [11] and 340 ± 20 µM in data set [12].

B3: MtmGDH (Methylotuvimicrobium alcaliphilum 20Z) (protein)
chain: T2 sequence (G4T0V2 1-271)
notes: full ORF, N-terminal His6 kept, E. coli Rosetta (DE3), pET28
In the case of B3, in data set [11], the Michaelis-Menten constant (Km) was 360 ± 20 µM and the catalytic constant (kcat) amounted to 0.177 s⁻¹. For the same molecule, in data set [12], the Km stood at 140 ± 10 µM and the kcat was found to be 0.00583 s⁻¹.
